Test results: US4459290A, “C-23-Modified derivatives of OMT, pharmaceutical compositions and method of use” (priority 1982, dated 1984)
Values after ≈ are worked out from the molar mass of the structure shown. Read-outs that look alike come from different tables or passages of the source.

What was measured:
Escherichia coli EC14 = assay: MIC, standard agar-dilution assay (Table V); type: cell-based; conditions: Escherichia coli
Description: (§1) Especially noteworthy is the improved activity against gram-negative bacteria for several derivatives when compared to the activity of OMT. […] The MIC's in Tables V and VI were determined by standard agar-dilution assays. The MIC's in Table VII were obtained using a conventional broth-dilution microtiter test.

Escherichia coli N10 = assay: MIC, standard agar-dilution assay (Table V); type: cell-based; conditions: Escherichia coli
Description: as §1

[1] = system: Klebsiella pneumoniae KAE; assay: MIC, standard agar-dilution assay (Table V); type: cell-based; conditions: Klebsiella pneumoniae
Description: as §1

[2] = system: Klebsiella pneumoniae X26; assay: MIC, standard agar-dilution assay (Table V); type: cell-based; conditions: Klebsiella pneumoniae
Description: as §1

Shigella sonnei N9 = assay: MIC, standard agar-dilution assay (Table V); type: cell-based
Description: as §1

[3] = system: Staphylococcus aureus S13E; assay: MIC, standard agar-dilution assay (Table V); type: cell-based; conditions: Staphylococcus aureus, S13E
Description: as §1

[4] = system: Staphylococcus aureus V41; assay: MIC, standard agar-dilution assay (Table V); type: cell-based; conditions: Staphylococcus aureus, V41
Description: as §1

[5] = system: Staphylococcus aureus X1.1; assay: MIC, standard agar-dilution assay (Table V); type: cell-based; conditions: Staphylococcus aureus, X1.1
Description: as §1

[6] = system: Staphylococcus aureus X400; assay: MIC, standard agar-dilution assay (Table V); type: cell-based; conditions: Staphylococcus aureus, X400
Description: as §1

[7] = system: Staphylococcus epidermidis EPI1; assay: MIC, standard agar-dilution assay (Table V); type: cell-based; conditions: Staphylococcus epidermidis, EPI1
Description: as §1

[8] = system: Staphylococcus epidermidis EPI2; assay: MIC, standard agar-dilution assay (Table V); type: cell-based; conditions: Staphylococcus epidermidis, EPI2
Description: as §1

Streptococcus Group 9960 = assay: MIC, standard agar-dilution assay (Table V); type: cell-based; conditions: GROUP9960
Description: as §1

[9] = system: Streptococcus Group D X66; assay: MIC, standard agar-dilution assay (Table V); type: cell-based
Description: as §1

Escherichia coli TEM = assay: MIC, standard agar-dilution assay (Table V); type: cell-based; conditions: Escherichia coli
Description: (§2) The MIC's in Tables V and VI were determined by standard agar-dilution assays. The MIC's in Table VII were obtained using a conventional broth-dilution microtiter test.

[10] = system: Haemophilus influenzae Holt; assay: MIC, standard agar-dilution assay (Table V); type: cell-based; conditions: Haemophilus influenzae
Description: as §2

[11] = system: Haemophilus influenzae R252; assay: MIC, standard agar-dilution assay (Table V); type: cell-based; conditions: Haemophilus influenzae
Description: as §2

[12] = system: Streptococcus pyogenes C203; assay: MIC, standard agar-dilution assay (Table V); type: cell-based; conditions: Streptococcus pyogenes
Description: as §2

[13] = system: Streptococcus pneumoniae Park I; assay: microbe, parasite or virus in culture; type: cell-based; conditions: Streptococcus pneumoniae
Description: as §1

Mycoplasma gallisepticum = assay: MIC, broth-dilution microtiter test (Table VII); type: cell-based; conditions: Mycoplasmoides gallisepticum
Description: as §1

Mycoplasma hyorhinis = assay: MIC, broth-dilution microtiter test (Table VII); type: cell-based
Description: as §1

Mycoplasma synoviae = assay: MIC, broth-dilution microtiter test (Table VII); type: cell-based; conditions: Mycoplasmopsis synoviae
Description: as §1

[14] = system: Pasteurella hemolytica 22C; assay: MIC, broth-dilution microtiter test (Table VII); type: cell-based; conditions: Pasteurella, P. hemolytica 22C, read-out: MIC
Description: as §1

[15] = system: Pasteurella hemolytica 23C; assay: MIC, broth-dilution microtiter test (Table VII); type: cell-based; conditions: Pasteurella, P. hemolytica 23C, read-out: MIC
Description: as §1

[16] = system: Pasteurella hemolytica 41D; assay: MIC, broth-dilution microtiter test (Table VII); type: cell-based; conditions: Pasteurella, P. hemolytica 41D, read-out: MIC
Description: as §1

[17] = system: Pasteurella multocida 17E; assay: MIC, broth-dilution microtiter test (Table VII); type: cell-based; conditions: Pasteurella multocida, 17E
Description: as §1

[18] = system: Pasteurella multocida 22A; assay: MIC, broth-dilution microtiter test (Table VII); type: cell-based; conditions: Pasteurella multocida
Description: as §1

[19] = system: Pasteurella multocida 40G; assay: MIC, broth-dilution microtiter test (Table VII); type: cell-based; conditions: Pasteurella multocida, 40G
Description: as §1

[20] = system: Pasteurella multocida 60A; assay: MIC, broth-dilution microtiter test (Table VII); type: cell-based; conditions: Pasteurella multocida, 60A
Description: as §1

[21] = system: Pasteurella multocida 68C; assay: MIC, broth-dilution microtiter test (Table VII); type: cell-based; conditions: Pasteurella multocida
Description: as §1

Staphylococcus aureus = assay: MIC, broth-dilution microtiter test (Table VII); type: cell-based; conditions: Staphylococcus aureus
Description: as §1

Streptococcus sp. 80 = assay: MIC, broth-dilution microtiter test (Table VII); type: cell-based
Description: as §1

[22] = system: Streptococcus pyogenes C203; assay: ED50 in mice experimentally infected with S. pyogenes C203 (Table VIII); type: in vivo
Description: The C-23 modified derivatives of OMT of this invention have shown in vivo antimicrobial activity against experimental infections. When two doses of test compound were administered to mice experimentally infected with a gram-positive bacterium, S. pyogenes C203, the activity observed was measured as an ED50 value [effective dose in mg/kg to protect 50% of the test animals: see Warren Wick, et al., J. Bacteriol. 81, 233-235 (1961)].

Pasteurella multocida = assay: Protection of one-day-old chicks against Pasteurella multocida infection (Table IX); type: in vivo; conditions: subcutaneous 30 mg/kg × 2, 1 and 4 hours post-challenge
Description: The C-23 modified derivatives of OMT have also shown in vivo antibacterial activity against infections induced by gram-negative bacteria. Table IX summarizes the results of tests in which illustrative compounds were evaluated against Pasteurella infections in one-day-old chicks. The compounds were administered by subcutaneous injection at a dosage of 30 mg/kg, 1 and 4 hours post-challenge of the chicks with Pasteurella multocida (0.1 ml of a twenty-hour tryptose broth culture of an avian P. multocida given subcutaneously). In the tests, all ten non-medicated infected chicks died within 24 hours of Pasteurella challenge.

Row | Structure (SMILES) | MIC (Shigella sonnei N9) | MIC [3] | MIC [4] | MIC [5] | MIC [6] | MIC [7] | MIC [8] | MIC (Streptococcus Group 9960) | MIC [9] | MIC (Mycoplasma gallisepticum) | MIC (Mycoplasma synoviae) | MIC [14] | MIC [15] | MIC [16] | MIC [17] | MIC [19] | MIC [20] | MIC (Staphylococcus aureus) | other results
1 | CCC1OC(=O)CC(O)C(C)C(OC2OC(C)C(O)C(N(C)C)C2O)C(CC=O)CC(C)C(=O)C=CC(C)(OCCc2ccccc2)C2CC12 (stereo not shown) [Compound 18] | > 128 µg/mL | 1 µg/mL (≈ 1.42 µM) | 2 µg/mL (≈ 2.85 µM) | 1 µg/mL (≈ 1.42 µM) | 2 µg/mL (≈ 2.85 µM) | 1 µg/mL (≈ 1.42 µM) | 2 µg/mL (≈ 2.85 µM) | 2 µg/mL (≈ 2.85 µM) | 1 µg/mL (≈ 1.42 µM) | 1.56 µg/mL (≈ 2.22 µM) | 3.12 µg/mL (≈ 4.45 µM) | 25 µg/mL (≈ 35.6 µM) | 25 µg/mL (≈ 35.6 µM) | 25 µg/mL (≈ 35.6 µM) | 12.5 µg/mL (≈ 17.8 µM) | 12.5 µg/mL (≈ 17.8 µM) | 12.5 µg/mL (≈ 17.8 µM) | 6.25 µg/mL (≈ 8.9 µM) | MIC (Escherichia coli EC14; E. coli EC14, agar dilution, read-out: MIC): > 128 µg/mL; MIC (Escherichia coli N10; E. coli N10, agar dilution, read-out: MIC): > 128 µg/mL; MIC ([1]; K. pneumoniae KAE, agar dilution, read-out: MIC): > 128 µg/mL; MIC ([2]; K. pneumoniae X26, agar dilution, read-out: MIC): 16 µg/mL (≈ 22.8 µM); MIC (Escherichia coli TEM; E. coli TEM, agar dilution, read-out: MIC): 64 µg/mL (≈ 91.2 µM); MIC [10]: 8 µg/mL (≈ 11.4 µM); MIC ([11]; R252): 8 µg/mL (≈ 11.4 µM); MIC ([12]; C203): 1 µg/mL (≈ 1.42 µM); MIC [13]: 0.25 µg/mL (≈ 0.356 µM); MIC (Mycoplasma hyorhinis; M. hyorhinis, broth-dilution microtiter, read-out: MIC): 25 µg/mL (≈ 35.6 µM); MIC ([18]; 22A): 12.5 µg/mL (≈ 17.8 µM); MIC ([21]; P. multocida 68C, broth-dilution microtiter, read-out: MIC): 25 µg/mL (≈ 35.6 µM); MIC (Streptococcus sp. 80; Streptococcus, SP.80): 1.56 µg/mL (≈ 2.22 µM)
2 | CCC1OC(=O)CC(O)C(C)C(OC2OC(C)C(O)C(N(C)C)C2O)C(CC=O)CC(C)C(=O)C=CC(C)=CC1CN (stereo not shown) [Compound 9, 23-Deoxy-23-amino-OMT] | > 128 µg/mL | 8 µg/mL (≈ 13.4 µM) | 8 µg/mL (≈ 13.4 µM) | 8 µg/mL (≈ 13.4 µM) | 8 µg/mL (≈ 13.4 µM) | 8 µg/mL (≈ 13.4 µM) | 8 µg/mL (≈ 13.4 µM) | 8 µg/mL (≈ 13.4 µM) | 8 µg/mL (≈ 13.4 µM) | 0.78 µg/mL (≈ 1.31 µM) | 0.78 µg/mL (≈ 1.31 µM) | 12.5 µg/mL (≈ 20.9 µM) | 12.5 µg/mL (≈ 20.9 µM) | 25 µg/mL (≈ 41.9 µM) | 6.25 µg/mL (≈ 10.5 µM) | 12.5 µg/mL (≈ 20.9 µM) | 6.25 µg/mL (≈ 10.5 µM) | 12.5 µg/mL (≈ 20.9 µM) | MIC (Escherichia coli EC14; EC14): > 128 µg/mL; MIC (Escherichia coli N10; N10): > 128 µg/mL; MIC [1]: > 128 µg/mL; MIC ([2]; X26): 16 µg/mL (≈ 26.8 µM); MIC (Escherichia coli TEM): > 128 µg/mL; MIC ([11]; H. influenzae R252, ampicillin-resistant strain, agar dilution, read-out: MIC): 1 µg/mL (≈ 1.68 µM); MIC ([12]; S. pyogenes C203, agar dilution, read-out: MIC): 2 µg/mL (≈ 3.35 µM); MIC ([13]; S. pneumoniae Park I, agar dilution, read-out: MIC): 1 µg/mL (≈ 1.68 µM); MIC (Mycoplasma hyorhinis): 12.5 µg/mL (≈ 20.9 µM); MIC ([18]; P. multocida 22A, broth-dilution microtiter, read-out: MIC): 25 µg/mL (≈ 41.9 µM); MIC ([21]; 68C): 12.5 µg/mL (≈ 20.9 µM); MIC (Streptococcus sp. 80; Streptococcus sp. 80, broth-dilution microtiter, read-out: MIC): 1.56 µg/mL (≈ 2.61 µM); ED50 ([22]; C203, po, read-out: ED50, Oral): > 100 mg/kg; ED50 ([22]; C203, sc, mice, subcutaneous, doses given 1 and 4 hours postinfection, read-out: ED50, Subcutaneous): 2.6 mg/kg; Number of deaths/number treated (Pasteurella multocida): 0/10
